From patent US20250197374A1, “WEE1 DEGRADING COMPOUNDS AND USES THEREOF” (BRISTOL-MYERS SQUIBB COMPANY, priority 2023, published 2025) come the findings set out here.

Type in all cases: cell-based
In one experiment the test system is MDA-MB-231 cells. As to the kind of experiment: MDA-MB-231 cell proliferation assay (Cell-Titer-Glo, 120 hr). The note with it: for EC50: Homo sapiens, MDA-MB-231, 120 h, read-out: MDA-MB 231 Cell Prolif. 120 hr EC50; for MDA-MB 231 Cell Prolif. 120 hr YMin (%): minimal percent of DMSO control observed. In short, it runs like this:
(§1)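 Growth inhibition was read as CellTiter-Glo luminescence after 120 h at 37 °C in RPMI/10% FBS, with 400 MKN45 or 800 MDA-MB-231 cells seeded per well. Compounds were tested in 10-point half-log series starting at 1 or 10 uM (0.1% DMSO), in triplicate for MKN45 and duplicate for MDA-MB-231. EC50 values are four-parameter fits to %DMSO control, and Ymin-obs is the minimal observed %DMSO.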

For the next experiment, the target named is T1, WEE1 (Homo sapiens, UniProt P30291+Q96SW2).
T1 construct: C-terminal ePL-tagged (DiscoverX, Fremont, CA) full-length WEE1 expression construct; expressed in transfected cells; host or cells: LentiX-HEK293T (Invitrogen), lentivirally transduced; the cells also over-express GSPT1-GN
T1 sequence (P30291 whole entry): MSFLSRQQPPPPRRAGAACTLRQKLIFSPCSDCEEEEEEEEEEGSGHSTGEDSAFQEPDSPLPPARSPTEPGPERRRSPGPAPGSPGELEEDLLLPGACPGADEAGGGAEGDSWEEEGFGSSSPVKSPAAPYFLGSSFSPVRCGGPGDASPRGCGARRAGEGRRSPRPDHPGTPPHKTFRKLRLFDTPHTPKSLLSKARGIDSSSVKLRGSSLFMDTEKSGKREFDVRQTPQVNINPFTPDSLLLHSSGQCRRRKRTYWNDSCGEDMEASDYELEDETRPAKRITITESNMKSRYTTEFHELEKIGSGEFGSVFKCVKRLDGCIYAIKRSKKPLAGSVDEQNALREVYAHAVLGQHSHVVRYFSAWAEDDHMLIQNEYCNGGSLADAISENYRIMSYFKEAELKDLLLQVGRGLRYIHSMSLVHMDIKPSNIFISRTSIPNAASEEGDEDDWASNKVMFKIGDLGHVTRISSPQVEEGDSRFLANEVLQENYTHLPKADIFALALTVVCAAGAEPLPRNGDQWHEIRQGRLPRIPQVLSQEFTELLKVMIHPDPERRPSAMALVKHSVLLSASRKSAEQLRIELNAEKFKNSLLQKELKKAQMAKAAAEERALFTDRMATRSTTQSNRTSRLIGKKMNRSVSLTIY
T1 sequence (Q96SW2 whole entry): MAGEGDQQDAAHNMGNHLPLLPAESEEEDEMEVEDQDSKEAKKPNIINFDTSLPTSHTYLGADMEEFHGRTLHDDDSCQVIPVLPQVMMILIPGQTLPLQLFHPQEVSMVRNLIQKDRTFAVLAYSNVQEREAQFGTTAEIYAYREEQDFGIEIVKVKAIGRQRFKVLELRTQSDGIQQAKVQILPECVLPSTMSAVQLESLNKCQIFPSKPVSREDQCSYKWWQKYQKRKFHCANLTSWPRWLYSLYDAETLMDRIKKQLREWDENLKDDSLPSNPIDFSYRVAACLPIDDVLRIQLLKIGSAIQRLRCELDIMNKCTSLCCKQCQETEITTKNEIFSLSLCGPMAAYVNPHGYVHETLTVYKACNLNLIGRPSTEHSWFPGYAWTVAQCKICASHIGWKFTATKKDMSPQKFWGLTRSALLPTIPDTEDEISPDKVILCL
T1 sequence (Q16531 whole entry partner): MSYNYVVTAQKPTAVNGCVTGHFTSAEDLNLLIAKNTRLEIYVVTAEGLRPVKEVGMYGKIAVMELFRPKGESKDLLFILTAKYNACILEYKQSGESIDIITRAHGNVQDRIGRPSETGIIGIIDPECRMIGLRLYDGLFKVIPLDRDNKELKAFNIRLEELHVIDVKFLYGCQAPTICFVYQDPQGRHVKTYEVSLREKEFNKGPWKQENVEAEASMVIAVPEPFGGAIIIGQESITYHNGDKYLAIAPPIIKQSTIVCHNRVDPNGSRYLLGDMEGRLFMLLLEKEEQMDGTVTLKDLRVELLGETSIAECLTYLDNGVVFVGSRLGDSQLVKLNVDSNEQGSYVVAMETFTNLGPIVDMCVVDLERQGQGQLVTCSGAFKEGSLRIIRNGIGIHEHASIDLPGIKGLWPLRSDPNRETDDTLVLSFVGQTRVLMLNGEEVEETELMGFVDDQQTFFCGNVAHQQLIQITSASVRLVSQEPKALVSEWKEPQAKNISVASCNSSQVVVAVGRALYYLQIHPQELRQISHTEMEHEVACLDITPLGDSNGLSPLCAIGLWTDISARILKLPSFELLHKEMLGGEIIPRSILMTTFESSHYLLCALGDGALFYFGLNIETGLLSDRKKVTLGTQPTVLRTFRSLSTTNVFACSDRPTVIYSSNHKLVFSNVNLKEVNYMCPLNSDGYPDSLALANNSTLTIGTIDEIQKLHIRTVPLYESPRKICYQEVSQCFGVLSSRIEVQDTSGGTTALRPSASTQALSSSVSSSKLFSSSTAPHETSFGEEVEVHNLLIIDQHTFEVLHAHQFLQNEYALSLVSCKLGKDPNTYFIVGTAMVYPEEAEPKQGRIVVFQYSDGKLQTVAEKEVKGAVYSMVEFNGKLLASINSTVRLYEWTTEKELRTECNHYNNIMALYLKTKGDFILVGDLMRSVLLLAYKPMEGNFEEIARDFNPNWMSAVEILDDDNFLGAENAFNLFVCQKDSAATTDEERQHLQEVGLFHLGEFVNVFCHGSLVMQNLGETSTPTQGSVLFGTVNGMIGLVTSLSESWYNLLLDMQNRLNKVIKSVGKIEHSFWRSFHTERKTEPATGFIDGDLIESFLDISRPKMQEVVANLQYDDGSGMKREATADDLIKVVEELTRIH
As to the kind of experiment: WEE1-ePL degradation assay (293T-LentiX, InCELL Hunter luminescence, 4 hr). The note with it: for 293T-LentiX WEE1-ePL Degradation 4 hr YMin (%): lower limit of fit, % of DMSO control signal remaining; for DC50: LentiX-HEK293T cells expressing WEE1-ePL, 4 hr incubation, read-out: 293T-LentiX WEE1-ePL Degradation 4 hr EC50. In short, it runs like this: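 EC50 comes from a four-parameter logistic fit of ePL luminescence (InCELL Hunter), with DMSO control defining Ymax. Compounds ran as 10-point 3-fold dilutions from 1 or 10 µM for 4 h at 37 °C. Cells were HEK293T-LentiX with ePL-tagged full-length WEE1 and over-expressed Cereblon-resistant GSPT1-GN.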

The next experiment deals with MKN45 cells. As to the kind of experiment: MKN45 cell proliferation assay (Cell-Titer-Glo, 120 hr). The settings on record: for EC50: Homo sapiens, MKN-45, 120 h, read-out: MKN45 Cell Prolif. 120 hr EC50; for MKN45 Cell Prolif. 120 hr YMin (%): minimal percent of DMSO control observed. In short, it runs like this: as §1

For `COC[C@@H]1CN(Cc2ncc3cc(N4CCOCC4)ccc3c2F)C[C@H]1Oc1ccc2c(c1)CN([C@H]1CCC(=O)NC1=O)C2=O` [Example 71, (3S)-3-(5-{[(3S,4S)-1-{[4-fluoro-7-(morpholin-4-yl)isoquinolin-3-yl]methyl}-4-(methoxymethyl)pyrrolidin-3-yl]oxy}-1-oxo-2,3-dihydro-1H-isoindol-2-yl)piperidine-2,6-dione], in the experiment on MDA-MB-231 cells, the EC50 – broadly, the concentration at which the effect is half-maximal – is 5 nM and the “MDA-MB 231 Cell Prolif. 120 hr YMin (%)” value is 26.6%. In addition, the “293T-LentiX WEE1-ePL Degradation 4 hr YMin (%)” value at WEE1 is on record as 25.3%. Besides, in the experiment with MKN45 cells, the EC50 was found to be 1 nM and the “MKN45 Cell Prolif. 120 hr YMin (%)” value is given as 8.7%.

As for `COC[C@@H]1CN(Cc2cc(F)c3nc(N4CCC45CCOCC5)ccc3c2)C[C@H]1Oc1ccc2c(c1)CN([C@H]1CCC(=O)NC1=O)C2=O` [Example 72, (3S)-3-(5-{[(3S,4S)-1-[(8-fluoro-2-{7-oxa-1-azaspiro [3.5]nonan-1-yl}quinolin-6-yl)methyl]-4-(methoxymethyl)pyrrolidin-3-yl]oxy}-1-oxo-2,3-dihydro-1H-isoindol-2-yl)piperidine-2,6-dione], in the experiment with MDA-MB-231 cells, the EC50 was 14 nM and the “MDA-MB 231 Cell Prolif. 120 hr YMin (%)” value is on record as 20.7%. For the same molecule, on WEE1, the DC50 amounted to 1 nM and the “293T-LentiX WEE1-ePL Degradation 4 hr YMin (%)” value is 27.3%. In the experiment on MKN45 cells, the EC50 is 1 nM and the “MKN45 Cell Prolif. 120 hr YMin (%)” value came to 9.3%.

For the molecule `COC[C@@H]1CN(Cc2cc(F)c3nc(N4CCC45CCOCC5)ncc3c2)C[C@H]1Oc1ccc2c(c1)CN([C@H]1CCC(=O)NC1=O)C2=O` [Example 73, (3S)-3-(5-{[(3S,4S)-1-[(8-fluoro-2-{7-oxa-1-azaspiro[3.5]nonan-1-yl}quinazolin-6-yl)methyl]-4-(methoxymethyl)pyrrolidin-3-yl]oxy}-1-oxo-2,3-dihydro-1H-isoindol-2-yl)piperidine-2,6-dione], in the experiment on MDA-MB-231 cells, the EC50 stood at 41 nM and the “MDA-MB 231 Cell Prolif. 120 hr YMin (%)” value is reported as 34.0%. At WEE1, the DC50 came to 1 nM and the “293T-LentiX WEE1-ePL Degradation 4 hr YMin (%)” value is on record as 28.9%. In the experiment on MKN45 cells, the EC50 stood at 3 nM and the “MKN45 Cell Prolif. 120 hr YMin (%)” value was 9.4%.

In the case of `COC[C@@H]1CN(Cc2cc(F)c3nc(N4CCC45COC5)ncc3c2)C[C@H]1Oc1ccc2c(c1)CN([C@H]1CCC(=O)NC1=O)C2=O` [Example 74, (3S)-3-(5-{[(3S,4S)-1-[(8-fluoro-2-{6-oxa-1-azaspiro[3.3]heptan-1-yl}quinazolin-6-yl)methyl]-4-(methoxymethyl)pyrrolidin-3-yl]oxy}-1-oxo-2,3-dihydro-1H-isoindol-2-yl)piperidine-2,6-dione], in the experiment on MDA-MB-231 cells, the EC50 is 15 nM and the “MDA-MB 231 Cell Prolif. 120 hr YMin (%)” value was 55.8%. Also, at WEE1, the DC50 was determined as 2 nM and the “293T-LentiX WEE1-ePL Degradation 4 hr YMin (%)” value is 31.4%. For the same molecule, in the experiment with MKN45 cells, the concentration for a half-maximal effect (EC50) is 3 nM and the “MKN45 Cell Prolif. 120 hr YMin (%)” value stood at 10.6%.

`COC[C@@H]1CN(Cc2cc(F)c3nc(N4CCC45COC5)ccc3c2)C[C@H]1Oc1ccc2c(c1)CN([C@H]1CCC(=O)NC1=O)C2=O` [Example 75, (3S)-3-(5-{[(3S,4S)-1-[(8-fluoro-2-{6-oxa-1-azaspiro [3.3]heptan-1-yl}quinolin-6-yl)methyl]-4-(methoxymethyl)pyrrolidin-3-yl]oxy}-1-oxo-2,3-dihydro-1H-isoindol-2-yl)piperidine-2,6-dione]: in the experiment on MDA-MB-231 cells, the EC50 was found to be 11 nM and the “MDA-MB 231 Cell Prolif. 120 hr YMin (%)” value is 56.6%. Further, the “293T-LentiX WEE1-ePL Degradation 4 hr YMin (%)” value on WEE1 amounted to 31.2%. Further, in the experiment on MKN45 cells, the EC50 is 1 nM and the “MKN45 Cell Prolif. 120 hr YMin (%)” value came out at 10.1%.

As to `COC[C@@H]1CN(Cc2cc(F)c3nc(N4CCOC5(CC5)C4)ncc3c2)C[C@H]1Oc1ccc2c(c1)CN([C@H]1CCC(=O)NC1=O)C2=O` [Example 79, (3S)-3-(5-{[(3S,4S)-1-[(8-fluoro-2-{4-oxa-7-azaspiro[2.5]octan-7-yl}quinazolin-6-yl)methyl]-4-(methoxymethyl)pyrrolidin-3-yl]oxy}-1-oxo-2,3-dihydro-1H-isoindol-2-yl)piperidine-2,6-dione], in the experiment with MDA-MB-231 cells, the EC50 stood at 31 nM and the “MDA-MB 231 Cell Prolif. 120 hr YMin (%)” value amounted to 17.9%. Moreover, at WEE1, the DC50 worked out at 1 nM and the “293T-LentiX WEE1-ePL Degradation 4 hr YMin (%)” value was found to be 28.7%. In the experiment with MKN45 cells, the EC50 came out at 1 nM and the “MKN45 Cell Prolif. 120 hr YMin (%)” value came out at 9.9%.

Take `COC[C@@H]1CN(Cc2cc(F)c3nc(N4CCOC5(COC5)C4)ncc3c2)C[C@H]1Oc1ccc2c(c1)CN([C@H]1CCC(=O)NC1=O)C2=O` [Example 80, (3S)-3-(5-{[(3S,4S)-1-[(2-{2,5-dioxa-8-azaspiro[3.5]nonan-8-yl}-8-fluoroquinazolin-6-yl)methyl]-4-(methoxymethyl)pyrrolidin-3-yl]oxy}-1-oxo-2,3-dihydro-1H-isoindol-2-yl)piperidine-2,6-dione]: in the experiment on MDA-MB-231 cells, the EC50 amounted to 42 nM and the “MDA-MB 231 Cell Prolif. 120 hr YMin (%)” value was determined as 23.5%. In addition, on WEE1, the DC50 amounted to 2 nM and the “293T-LentiX WEE1-ePL Degradation 4 hr YMin (%)” value is reported as 29.7%. In the experiment with MKN45 cells, the concentration giving a half-maximal response (EC50) is 2 nM and the “MKN45 Cell Prolif. 120 hr YMin (%)” value worked out at 10.3%.

Consider `COC[C@@H]1CN(Cc2ccc3nc(C4CCN(C(C)=O)C(C)(C)C4)ncc3c2)C[C@H]1Oc1ccc2c(c1)CN([C@H]1CCC(=O)NC1=O)C2=O` (stereo partly drawn) [Example 82, (3S)-3-(5-{[(3S,4S)-1-{[2-(1-acetyl-2,2-dimethylpiperidin-4-yl)quinazolin-6-yl]methyl}-4-(methoxymethyl)pyrrolidin-3-yl]oxy}-1-oxo-2,3-dihydro-1H-isoindol-2-yl)piperidine-2,6-dione], for which, in the experiment with MDA-MB-231 cells, the EC50 stood at 26 nM and the “MDA-MB 231 Cell Prolif. 120 hr YMin (%)” value was 17.9%. Further, on WEE1, the DC50 came out at 2 nM and the “293T-LentiX WEE1-ePL Degradation 4 hr YMin (%)” value is listed as 27.5%. Also, in the experiment with MKN45 cells, the EC50 came out at 2 nM and the “MKN45 Cell Prolif. 120 hr YMin (%)” value stood at 9.0%.

Consider `COC[C@H]1CN(Cc2cc(F)c3nc(C4CCOCC4)ccc3c2)C[C@H]1Oc1ccc2c(c1)CN([C@H]1CCC(=O)NC1=O)C2=O` [Example 83, (3S)-3-(5-{[(3S,4R)-1-{[8-fluoro-2-(oxan-4-yl)quinolin-6-yl]methyl}-4-(methoxymethyl)pyrrolidin-3-yl]oxy}-1-oxo-2,3-dihydro-1H-isoindol-2-yl)piperidine-2,6-dione], for which, in the experiment on MDA-MB-231 cells, the EC50 came to 1120 nM and the “MDA-MB 231 Cell Prolif. 120 hr YMin (%)” value is 87.9%. Further, on WEE1, the “293T-LentiX WEE1-ePL Degradation 4 hr YMin (%)” value came out at 81.6%. In addition, in the experiment on MKN45 cells, the EC50 amounted to 109 nM and the “MKN45 Cell Prolif. 120 hr YMin (%)” value stood at 94.8%.

Regarding `COC[C@@H]1CN(Cc2ccc3nc(C4CCOC(C)(C)C4)ccc3c2)C[C@H]1Oc1ccc2c(c1)CN([C@H]1CCC(=O)NC1=O)C2=O` (stereo partly drawn) [Example 84, (3S)-3-(5-{[(3S,4S)-1-{[2-(2,2-dimethyloxan-4-yl)quinolin-6-yl]methyl}-4-(methoxymethyl)pyrrolidin-3-yl]oxy}-1-oxo-2,3-dihydro-1H-isoindol-2-yl)piperidine-2,6-dione], in the experiment with MDA-MB-231 cells, the EC50 was 83 nM and the “MDA-MB 231 Cell Prolif. 120 hr YMin (%)” value is recorded as 21.0%. For the same molecule, the “293T-LentiX WEE1-ePL Degradation 4 hr YMin (%)” value on WEE1 is given as 30.8%. In the experiment with MKN45 cells, the EC50 was 1 nM and the “MKN45 Cell Prolif. 120 hr YMin (%)” value is recorded as 10.5%.
